Laboratory results published in PMC10343279, “The Cytotoxic Activity of Dammarane-Type Triterpenoids Isolated from the Stem Bark of Aglaia cucullata (Meliaceae)” (Molecules, 2023).
Read-outs that look alike come from different tables or passages of the source.

Assays:
Assay type in all cases: cell-based
[1] = tested on: MCF-7 breast cancer cell line; assay: PrestoBlue cytotoxicity assay against MCF-7 breast cancer cells; settings: MCF-7, PrestoBlue, 24 h incubation, run twice and averaged
Description: (§1) A normal cell (CV-1 kidney fibroblast cells) and two cancer cell lines (MCF-7 breast cancer and B16-F10 melanoma cells) were used to test the cytotoxic activities of compounds 1–7. In this experiment, two wavelengths (570 and 600 nm) were used because the measured cells were live cells so, to obtain the value/number of live cells, measurements were carried out at two wavelengths, namely before the reaction (blue) and after the reaction (pink) to produce a corrected absorbance value, which was interpreted as the number live cells after treatment. The results arising from the experiments, along with IC50 calculation graphs and cell morphology at each sample concentration, are presented in Figures S38–S58.
(§2) The PrestoBlue assay was utilized to conduct the cytotoxic bioassay. Additionally, Presto Blue reagent from Thermo Fisher Scientific, Uppsala, Sweden, was used to measure cell viability, which allowed for rapid evaluation of various resazurin-based cells. The rate of proliferation of the samples was then determined quantitatively through live-cell reduction capabilities. According to the findings, healthy cells kept a reduced habitat in their cytoplasm. By reducing resorufin (purple) with absorbance or fluorescence outputs, resazurin reduction (blue) acted as a viability indicator. The conversion correlated with the number of cells that were metabolically active. MCF-7, B16-F10, and CV-1 cell lines were cultured until they reached 70% confluence, and then they were removed, counted with a hemocytometer, and diluted with complete culture RPMI media. A total of 170,000 cells per well in 96-well plates with the samples were used. After an overnight growth period, the samples were treated with compounds 1–7 at escalating concentrations ([…]) in PBS, with 2% DMSO as the co-solvent. Additionally, cisplatin served as the positive control, and all samples were incubated for 24 h at 37° C with 5% CO2. Following incubation, the medium was immediately changed to 10 μL of the PrestoBlue reagent in 90 μL of the RPMI medium. As resorufin began to form, the color of the plates changed from blue to purple after being incubated for another one to two hours. Using a microplate reader to measure absorbance at 570 nm and 600 nm, the concentration required to inhibit growth by 50% was calculated as the IC50 value. […] The results of each test and analysis were averaged after being run twice.

[2] = tested on: B16-F10 melanoma cell line; assay: PrestoBlue cytotoxicity assay against B16-F10 melanoma cells; settings: 24 h incubation, run twice and averaged
Description: as §1, §2

[3] = tested on: CV-1 normal kidney fibroblast cell line; assay: cells
Description: as §1, §2

[4] = Homo sapiens, MCF7, read-out: IC50 for MCF-7
[5] = Homo sapiens, MCF7, read-out: IC50 for MCF-7 (μg/mL)
[6] = Mus musculus, read-out: IC50 for B16-F10
[7] = Mus musculus, read-out: IC50 for B16-F10 (μg/mL)
[8] = Fibroblast, CV-1 normal cells, PrestoBlue, 24 h incubation, run twice and averaged, read-out: IC50 for CV-1
[9] = Fibroblast, CV-1 normal cells, PrestoBlue, 24 h incubation, run twice and averaged, read-out: IC50 for CV-1 (μg/mL)

| Structure (SMILES) | IC50 for MCF-7 [1] | IC50 ([1]; read-out: IC50 for MCF-7) | IC50 for B16-F10 [2] | IC50 ([2]; read-out: IC50 for B16-F10) | IC50 for CV-1 ([3]; CV-1 normal cells, PrestoBlue, 24 h incubation, run twice and averaged) | IC50 ([3]; CV-1 normal cells, PrestoBlue, 24 h incubation, run twice and averaged, read-out: IC50 for CV-1) | IC50 [1, 4] | IC50 [1, 5] | IC50 [2, 6] | IC50 [2, 7] | IC50 [3, 8] | IC50 [3, 9] | cell death based on morphological observation [3] |
| --- | --- | --- | --- | --- | --- | --- | --- | --- | --- | --- | --- | --- | --- |
| N.N.[Cl][Pt][Cl] [Cisplatin, cisplatin, reference compound] | 53.00 µg/mL | 176 µM | 43.00 µg/mL | 143 µM | 43.00 µg/mL | 143 µM | – | – | – | – | – | – | – |
| CC(C)(O)[C@@H]1CC[C@@](C)(C2CC[C@]3(C)C2CCC2[C@@]4(C)CC[C@@H](O)C(C)(C)C4CC[C@]23C)O1 (stereo partly drawn) [Compound 1, 20S,24S-epoxy-3α,25-dihydroxy-dammarane] | – | – | – | – | – | – | 142 µM | 65.5 µg/mL | 97.3 µM | 44.8 µg/mL | 174 µM | 80.1 µg/mL | – |
| C=C(CCC=C(C)C)C1CC[C@]2(C)C1CC[C@@H]1[C@@]3(C)CCC(=O)C(C)(C)C3CC[C@]12C (stereo partly drawn) [Compound 2, dammaradienone] | – | – | – | – | – | – | 132 µM | 56.1 µg/mL | 129 µM | 54.8 µg/mL | 195 µM | 82.8 µg/mL | – |
| CC(C)=CCC[C@](C)(O)C1CC[C@]2(C)C1CC[C@@H]1[C@@]3(C)CCC(=O)C(C)(C)C3CC[C@]12C (stereo partly drawn) [Compound 3, 20S-hydroxy-dammar-24-en-3-on] | – | – | – | – | – | – | > 300 µM | 142 µg/mL | 111 µM | 49.1 µg/mL | > 300 µM | > 300 µg/mL | no cell death at all concentration levels |
| C=C(C)[C@@H]1CC[C@]2(C)[C@H](CC[C@@H]3[C@@H]([C@]4(C)CC[C@@H](C(C)(C)O)O4)CC[C@]32C)[C@@]1(C)CCC(=O)O [Compound 4, eichlerianic acid] | – | – | – | – | – | – | > 300 µM | > 300 µg/mL | > 300 µM | 275 µg/mL | 288 µM | 137 µg/mL | – |
| COC1CC[C@@](C)(C2CC[C@]3(C)C2CCC2[C@@]4(C)CCC(=O)C(C)(C)C4CC[C@]23C)O1 (stereo partly drawn) [Compound 5, (20S,24RS)-23,24-epoxy-24-methoxy-25,26,27-tris-nor dammar-3-one] | – | – | – | – | – | – | 133 µM | 57.3 µg/mL | 105 µM | 45.4 µg/mL | > 300 µM | > 300 µg/mL | no cell death at all concentration levels |
| CC(=O)O[C@@H]1CC[C@@]2(C)C(CC[C@]3(C)C2CCC2C([C@]4(C)CCC(=O)O4)CC[C@]23C)C1(C)C (stereo partly drawn) [Compound 6, 3α-acetyl-cabraleahydroxy lactone] | – | – | – | – | – | – | 274 µM | 126 µg/mL | 274 µM | 126 µg/mL | 285 µM | 131 µg/mL | – |
| CC(=O)O[C@@H]1CC[C@@]2(C)C(CC[C@]3(C)C2CCC2C([C@]4(C)CC[C@@H](C(C)(C)O)O4)CC[C@]23C)C1(C)C (stereo partly drawn) [Compound 7, 3α-acetyl-20S,24S-epoxy-3α,25-dihydroxydammarane] | – | – | – | – | – | – | 195 µM | 97.9 µg/mL | 158 µM | 79.4 µg/mL | > 300 µM | > 300 µg/mL | no cell death at all concentration levels |
